Among the test systems are 786-0 renal; CAKI-1 renal; COLO 205 colon; HOP-92 NSCLC; HS 578T breast; MOLT-4 leukemia; SF-268 CNS; SK-MEL-2 melanoma; SK-OV-3 ovarian; T-47D breast.
Common to all, as to experiment: NCI anticancer screen, dose series, 48 h

Where “and” joins values, the source holds several entries; their conditions need not be identical. Equal entries are not always repeated.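 These data come from cells grown in 96-well plates and exposed to compound for 48 hours at five concentrations. GI50 = concentration required for 50% inhibition of growth. TGI denotes the concentration required for complete inhibition of growth.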

In the case of `CCC1=C(c2ccc(OC)cc2)C(C)(C)Oc2c1ccc(O)c2CN1CCCC1`, the GI50 was 4.02 µM in the experiment with 786-0 renal; 2.95 µM with CAKI-1 renal; 14.9 µM with COLO 205 colon; 1.23 µM with HOP-92 NSCLC; 3.44 µM in the experiment with HS 578T breast; 2.18 µM with MOLT-4 leukemia. The GI50 with SF-268 CNS is 8.8 µM; with SK-MEL-2 melanoma it was 1.98 µM; in the experiment on SK-OV-3 ovarian, 8.23 µM; in the experiment on T-47D breast, 1.45 µM. Also, the TGI was 20.2 µM in the experiment with 786-0 renal; 30.4 µM with CAKI-1 renal; 87.4 µM with COLO 205 colon; 3.98 µM in the experiment on HOP-92 NSCLC; 35.1 µM in the experiment with HS 578T breast; 6.53 µM with MOLT-4 leukemia. Moreover, the TGI is above 100 µM with SF-268 CNS, 3.7 µM in the experiment with SK-MEL-2 melanoma, above 100 µM in the experiment on SK-OV-3 ovarian and 4.64 µM in the experiment on T-47D breast.

Consider `COc1cc2nc(Nc3cccc(Cl)c3)nc(N)c2cc1OC`, for which the GI50 with 786-0 renal is 1.85 µM; in the experiment on CAKI-1 renal, 12.3 µM; in the experiment on COLO 205 colon it was 1.68 µM; in the experiment with HOP-92 NSCLC it was 2.59 µM; in the experiment with HS 578T breast, 6.05 µM; in the experiment on MOLT-4 leukemia it was 2.78 µM. The GI50 with SF-268 CNS was 6.41 µM; with SK-MEL-2 melanoma, 8.28 µM; in the experiment on SK-OV-3 ovarian it was 18.1 µM; in the experiment with T-47D breast it was 5.13 µM. Besides, the TGI stood at 3.73 µM in the experiment on 786-0 renal; 27.9 µM with CAKI-1 renal; 3.39 µM in the experiment with COLO 205 colon; 14.6 µM with HOP-92 NSCLC; 31.6 µM with HS 578T breast; 11.4 µM in the experiment on MOLT-4 leukemia. Besides, the TGI in the experiment with SF-268 CNS is 19.9 µM; in the experiment on SK-MEL-2 melanoma, 28.5 µM; in the experiment on SK-OV-3 ovarian, 32.7 µM; in the experiment on T-47D breast it was 24 µM.

As for `COc1cc(-n2ccnc2-c2ccc3ccccc3c2)cc(OC)c1OC`, the GI50 in the experiment on 786-0 renal was 0.161 µM; in the experiment with CAKI-1 renal, 0.0853 µM; in the experiment on COLO 205 colon, below 0.0282 µM; with HOP-92 NSCLC, 3.72 µM; in the experiment on HS 578T breast it was 0.135 µM; in the experiment with MOLT-4 leukemia, 0.284 µM. Besides, the GI50 in the experiment on SF-268 CNS is 0.182 µM; with SK-MEL-2 melanoma, 0.19 µM; in the experiment on SK-OV-3 ovarian, 0.13 µM; in the experiment with T-47D breast, 0.633 µM. For the same molecule, the TGI in the experiment on 786-0 renal is 19 µM; in the experiment with CAKI-1 renal, above 75.3 µM; in the experiment with COLO 205 colon, 0.785 µM; in the experiment with HOP-92 NSCLC, 28.9 µM; with HS 578T breast it was 10.5 µM; in the experiment with MOLT-4 leukemia it was above 50.9 µM. Moreover, the TGI came out at 49.8 µM in the experiment with SF-268 CNS, 26.9 µM in the experiment with SK-MEL-2 melanoma, 24.7 µM in the experiment with SK-OV-3 ovarian and 60.7 µM in the experiment on T-47D breast.

Turning to `Cc1c(CN2CCN(C(=O)[C@H](C)O)CC2)sc2c(N3CCOCC3)nc(-c3cnc(N)nc3)nc12`, the GI50 in the experiment on 786-0 renal was 0.38 µM and 0.159 µM; in the experiment on CAKI-1 renal, 0.159 µM and 0.213 µM; with COLO 205 colon, 0.224 µM and 0.233 µM; in the experiment with HOP-92 NSCLC, 0.143 µM and 0.0181 µM; with HS 578T breast, 0.0539 µM and 0.0446 µM; in the experiment with MOLT-4 leukemia it was 0.175 µM and 0.139 µM. The GI50 in the experiment on SF-268 CNS is 0.328 µM and 0.204 µM; in the experiment with SK-MEL-2 melanoma it was 0.513 µM and 0.198 µM; with SK-OV-3 ovarian it was 0.123 µM and 0.112 µM; in the experiment with T-47D breast, 0.0145 µM and 0.0269 µM. For the same molecule, the TGI is 4.72 µM and 1.11 µM with 786-0 renal; > 4.52 µM and 2.14 µM in the experiment with CAKI-1 renal; > 5.47 µM and 9.5 µM in the experiment on COLO 205 colon; 0.8 µM and 0.108 µM in the experiment on HOP-92 NSCLC; 0.541 µM and 0.352 µM with HS 578T breast; > 10 µM and 12.7 µM in the experiment on MOLT-4 leukemia. For the same molecule, the TGI in the experiment with SF-268 CNS is > 10 µM and 27.1 µM; in the experiment on SK-MEL-2 melanoma, 4.72 µM and 1.8 µM; in the experiment on SK-OV-3 ovarian it was 1.13 µM and 0.573 µM; in the experiment with T-47D breast it was 0.332 µM and 0.175 µM.

Turning to `CN1C(=O)CCC(N2C(=O)c3cccc(NCCOCCOCCNC(=O)c4cc5c(o4)C(=O)c4ccccc4C5=O)c3C2=O)C1=O` (stereo not given), the GI50 in the experiment on 786-0 renal was 2.27 µM; with CAKI-1 renal, 3.35 µM; with COLO 205 colon, 2.06 µM; with HOP-92 NSCLC, 3.71 µM; in the experiment on HS 578T breast it was 2.7 µM; in the experiment with MOLT-4 leukemia, 2.38 µM. Besides, the GI50 with SF-268 CNS is 2.38 µM; in the experiment on SK-MEL-2 melanoma, 2.2 µM; in the experiment with SK-OV-3 ovarian, 3.84 µM; in the experiment on T-47D breast, 2.88 µM. Also, the TGI in the experiment on 786-0 renal came to 5.64 µM; in the experiment on CAKI-1 renal it was 12.1 µM; in the experiment with COLO 205 colon it was 4.04 µM; in the experiment on HOP-92 NSCLC, 13.6 µM; in the experiment on HS 578T breast, 7.46 µM; in the experiment on MOLT-4 leukemia it was 5.8 µM. The TGI worked out at 6.79 µM in the experiment on SF-268 CNS, 6.49 µM with SK-MEL-2 melanoma, 12.4 µM in the experiment with SK-OV-3 ovarian and 10.3 µM with T-47D breast.

As to `CC(=O)O.CN1[CH-]N(Cc2ccc(C#N)cc2)c2ccccc21.[Ag+]`, the GI50 in the experiment with 786-0 renal was 18.4 µM; with CAKI-1 renal, 18.2 µM; in the experiment with COLO 205 colon it was 10.3 µM; in the experiment on HOP-92 NSCLC, 20.3 µM; with HS 578T breast it was above 100 µM; in the experiment on MOLT-4 leukemia, 26.1 µM. Also, the GI50 in the experiment with SF-268 CNS was 72 µM; in the experiment on SK-MEL-2 melanoma it was above 100 µM; in the experiment with SK-OV-3 ovarian, 24.4 µM; with T-47D breast, 14.8 µM. In addition, the TGI in the experiment with 786-0 renal is 36.7 µM; with CAKI-1 renal, 33.9 µM; in the experiment with COLO 205 colon, 31.5 µM; with HOP-92 NSCLC it was 40.7 µM; in the experiment on HS 578T breast it was above 100 µM; in the experiment with MOLT-4 leukemia, 68.2 µM. Moreover, the TGI is above 100 µM in the experiment on SF-268 CNS, above 100 µM in the experiment with SK-MEL-2 melanoma, 63.5 µM in the experiment with SK-OV-3 ovarian and 60.1 µM with T-47D breast.

In the case of `O=C1c2c(c(=O)[nH]c3ccccc23)[C@H](c2ccccc2)[C@@H]2CCCN12`, the GI50 is 4.61 µM in the experiment on 786-0 renal; 17.6 µM in the experiment on CAKI-1 renal; 14.6 µM in the experiment with COLO 205 colon; 2.94 µM with HOP-92 NSCLC; 2.89 µM in the experiment on HS 578T breast; 5.12 µM with MOLT-4 leukemia. Further, the GI50 with SF-268 CNS is 3.68 µM; in the experiment with SK-MEL-2 melanoma, 4.17 µM; with SK-OV-3 ovarian, 9.56 µM; with T-47D breast it was 3.46 µM. The TGI was above 100 µM in the experiment with 786-0 renal; 68.2 µM with CAKI-1 renal; 44.5 µM with COLO 205 colon; 15.7 µM in the experiment with HOP-92 NSCLC; 11.1 µM in the experiment on HS 578T breast; 39.2 µM in the experiment with MOLT-4 leukemia. Also, the TGI in the experiment with SF-268 CNS came to 23 µM; with SK-MEL-2 melanoma, 46.7 µM; in the experiment on SK-OV-3 ovarian, 80 µM; with T-47D breast, 9.2 µM.

The values above are taken from PubChem BioAssay (NCI).
